In ChEMBL document CHEMBL4130634, “Discovery of Reversible DNA Methyltransferase and Lysine Methyltransferase G9a Inhibitors with Antitumoral in Vivo Efficacy” (J Med Chem, 2018):

How the values were obtained:
[1] = molecular target: DNA (cytosine-5)-methyltransferase 1 (Homo sapiens, UniProt P26358); assay: Inhibition of human DNMT1 using polydeoxyinosine polydeoxycytosine DNA as substrate after 15 mins in presence of SAM by TR-FRET assay
[2] = molecular target: T1, Histone-lysine N-methyltransferase EHMT2 (Homo sapiens, UniProt Q96KQ7); assay: Inhibition of human G9a using biotinylated-H3K9 peptide as substrate after 1 hr in presence of SAM by TR-FRET assay
T1 sequence (Q96KQ7 whole entry): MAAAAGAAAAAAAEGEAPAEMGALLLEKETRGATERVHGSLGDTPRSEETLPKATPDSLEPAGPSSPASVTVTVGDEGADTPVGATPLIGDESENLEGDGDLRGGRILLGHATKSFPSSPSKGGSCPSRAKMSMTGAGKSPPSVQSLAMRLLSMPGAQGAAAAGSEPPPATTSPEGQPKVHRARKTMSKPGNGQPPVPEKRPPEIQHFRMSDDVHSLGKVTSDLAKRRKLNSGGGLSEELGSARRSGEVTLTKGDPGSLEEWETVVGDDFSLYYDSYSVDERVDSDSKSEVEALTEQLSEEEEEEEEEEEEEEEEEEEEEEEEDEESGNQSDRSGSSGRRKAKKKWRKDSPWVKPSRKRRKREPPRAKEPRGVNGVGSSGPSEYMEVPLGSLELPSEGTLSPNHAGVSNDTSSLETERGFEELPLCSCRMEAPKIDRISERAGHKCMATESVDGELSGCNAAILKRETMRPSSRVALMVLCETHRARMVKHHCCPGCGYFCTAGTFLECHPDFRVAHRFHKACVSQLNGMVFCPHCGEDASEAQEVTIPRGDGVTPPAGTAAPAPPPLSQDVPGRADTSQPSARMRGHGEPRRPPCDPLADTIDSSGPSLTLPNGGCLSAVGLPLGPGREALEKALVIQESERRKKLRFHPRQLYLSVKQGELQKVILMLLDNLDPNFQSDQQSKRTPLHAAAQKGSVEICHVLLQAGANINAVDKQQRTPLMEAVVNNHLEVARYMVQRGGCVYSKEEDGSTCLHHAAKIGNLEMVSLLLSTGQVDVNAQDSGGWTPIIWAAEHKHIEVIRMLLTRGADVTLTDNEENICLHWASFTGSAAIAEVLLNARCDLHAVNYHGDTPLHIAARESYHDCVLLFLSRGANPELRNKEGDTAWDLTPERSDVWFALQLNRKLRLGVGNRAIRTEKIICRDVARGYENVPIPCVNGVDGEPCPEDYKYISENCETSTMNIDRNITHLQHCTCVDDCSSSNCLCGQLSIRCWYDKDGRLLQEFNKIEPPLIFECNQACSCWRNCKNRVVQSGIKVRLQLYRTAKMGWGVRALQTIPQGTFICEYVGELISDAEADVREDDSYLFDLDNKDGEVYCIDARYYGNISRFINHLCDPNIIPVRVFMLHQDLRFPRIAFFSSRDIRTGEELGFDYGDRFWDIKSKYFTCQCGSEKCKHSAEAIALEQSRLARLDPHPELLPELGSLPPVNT

[3] = test system: OCI-Ly3; assay: Growth inhibition of human OCI-LY3 cells at 1 uM after 48 hrs by MTS assay relative to control; type: functional; conditions: OCI-Ly3, 48 h, read-out: GI
[4] = Permeability of the compound at 50 uM after 18 hrs by PAMPA; type: ADME; conditions: read-out: permeability
[5] = test system: THLE-2; assay: Growth inhibition of human THLE2 cells after 72 hrs by MTS assay; type: cell-based; conditions: thle-2, 72 h
[6] = test system: MV4-11; assay: Growth inhibition of human MV4-11 cells after 48 hrs by MTS assay; type: functional; conditions: MV4-11, 48 h
[7] = test system: OCI-Ly10; assay: Growth inhibition of human OCI-LY10 cells at 1 uM after 48 hrs by MTS assay relative to control; type: functional; conditions: OCI-Ly10, 48 h, read-out: GI
[8] = Growth inhibition of human CEMO1 cells after 48 hrs by MTS assay; type: functional
[9] = Growth inhibition of human CEMO1 cells at 1 uM after 48 hrs by MTS assay relative to control; type: functional; conditions: read-out: GI
[10] = Growth inhibition of human LAL-CUN-2 cells at 1 uM after 48 hrs by MTS assay relative to control; type: functional; conditions: read-out: GI
[11] = test system: OCI-Ly10; assay: Growth inhibition of human OCI-LY10 cells after 48 hrs by MTS assay; type: functional; conditions: OCI-Ly10, 48 h
[12] = test system: OCI-Ly3; assay: Growth inhibition of human OCI-LY3 cells after 48 hrs by MTS assay; type: functional; conditions: OCI-Ly3, 48 h
[13] = Growth inhibition of human LAL-CUN-2 cells after 48 hrs by MTS assay; type: functional

Sequence of DNA (cytosine-5)-methyltransferase 1 (P26358 whole entry): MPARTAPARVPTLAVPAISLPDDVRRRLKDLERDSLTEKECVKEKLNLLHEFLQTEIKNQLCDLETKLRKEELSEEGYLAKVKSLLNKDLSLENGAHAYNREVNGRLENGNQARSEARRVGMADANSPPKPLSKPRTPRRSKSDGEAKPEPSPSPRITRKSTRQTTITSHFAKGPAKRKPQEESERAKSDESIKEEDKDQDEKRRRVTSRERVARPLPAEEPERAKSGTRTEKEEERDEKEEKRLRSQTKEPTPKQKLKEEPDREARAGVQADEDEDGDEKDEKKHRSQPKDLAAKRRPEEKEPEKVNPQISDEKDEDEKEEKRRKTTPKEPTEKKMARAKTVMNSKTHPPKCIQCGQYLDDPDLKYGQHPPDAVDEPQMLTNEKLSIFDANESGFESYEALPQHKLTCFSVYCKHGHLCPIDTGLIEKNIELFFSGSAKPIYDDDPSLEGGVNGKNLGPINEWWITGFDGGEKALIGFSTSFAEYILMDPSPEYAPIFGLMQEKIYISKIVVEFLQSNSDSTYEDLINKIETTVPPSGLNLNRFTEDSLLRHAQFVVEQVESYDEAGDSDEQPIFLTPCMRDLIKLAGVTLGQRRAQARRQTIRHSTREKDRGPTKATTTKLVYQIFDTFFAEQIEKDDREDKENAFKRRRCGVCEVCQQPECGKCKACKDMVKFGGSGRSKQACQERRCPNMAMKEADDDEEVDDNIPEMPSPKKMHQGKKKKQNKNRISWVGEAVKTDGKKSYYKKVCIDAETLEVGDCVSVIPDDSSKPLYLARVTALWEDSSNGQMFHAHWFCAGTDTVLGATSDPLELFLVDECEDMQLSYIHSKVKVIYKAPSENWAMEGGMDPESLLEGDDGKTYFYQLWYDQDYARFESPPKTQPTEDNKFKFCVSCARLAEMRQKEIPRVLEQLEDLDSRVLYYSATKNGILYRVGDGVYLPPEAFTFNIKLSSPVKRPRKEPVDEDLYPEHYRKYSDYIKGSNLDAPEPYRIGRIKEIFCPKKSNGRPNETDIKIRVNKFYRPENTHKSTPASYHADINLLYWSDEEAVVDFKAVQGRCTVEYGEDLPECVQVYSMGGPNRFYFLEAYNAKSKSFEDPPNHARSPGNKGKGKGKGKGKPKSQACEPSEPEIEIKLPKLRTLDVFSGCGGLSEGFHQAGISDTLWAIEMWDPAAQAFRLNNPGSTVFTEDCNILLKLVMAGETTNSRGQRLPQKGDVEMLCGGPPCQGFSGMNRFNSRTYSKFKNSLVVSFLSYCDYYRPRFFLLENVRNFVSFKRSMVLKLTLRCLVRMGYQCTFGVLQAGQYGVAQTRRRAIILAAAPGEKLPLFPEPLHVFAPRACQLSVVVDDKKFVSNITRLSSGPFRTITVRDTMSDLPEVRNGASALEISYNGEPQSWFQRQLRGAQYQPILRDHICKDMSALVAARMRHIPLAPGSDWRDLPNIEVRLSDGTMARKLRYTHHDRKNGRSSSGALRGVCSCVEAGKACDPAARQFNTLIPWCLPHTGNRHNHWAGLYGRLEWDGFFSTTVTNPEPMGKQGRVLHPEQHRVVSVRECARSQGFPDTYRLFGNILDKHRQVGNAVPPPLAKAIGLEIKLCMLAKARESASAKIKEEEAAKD

Row | SMILES | IC50 [1] | IC50 [2] | Papp at 18 h, 50 µM [4] | inhibition of growth at 1 µM [9] | inhibition of growth at 1 µM [10] | other results
1 | COc1cc2c(NC3CCN(C)CC3)cc(-c3ccc(C)s3)nc2cc1OCCCN1CCCC1 | 230 nM | 43 nM | 2.91 ×10⁻⁶ cm/s |  |  | inhibition of growth at 1 µM [3]: 21%; LC50 [5]: 4060 nM; GI50 [6]: 3100 nM; inhibition of growth at 1 µM [7]: 42%; GI50 [8]: 555 nM
2 | COc1cc2c(NC3CCN(C)CC3)cc(C3CCCCC3)nc2cc1OCCCN1CCCC1 | 497 nM | 2 nM | 1.98 ×10⁻⁶ cm/s | 20% |  | LC50 [5]: 34800 nM; GI50 [6]: > 10000 nM
3 | CCNCc1ccc(-c2cc(NC3CCN(C)CC3)c3cc(OC)c(OCCCN4CCCC4)cc3n2)o1 | 618 nM | 48 nM | 0.13 ×10⁻⁶ cm/s | 0% | 3% | inhibition of growth at 1 µM [3]: 0%; inhibition of growth at 1 µM [7]: 0%
4 | COc1cc2c(NC3CCN(C)CC3)cc(-c3ccn(C)n3)nc2cc1OCCCN1CCCC1 | 969 nM | 44 nM |  | 10% | 16% | inhibition of growth at 1 µM [3]: 16%; inhibition of growth at 1 µM [7]: 0%
5 | COc1cc2c(NC3CCN(C)CC3)cc(-c3cc[nH]c(=O)c3)nc2cc1OCCCN1CCCC1 | 1250 nM | 142 nM |  |  |  | 
6 | COc1cc2c(NC3CCN(C)CC3)cc(-c3ccc(C#N)o3)nc2cc1OCCCN1CCCC1 | 1600 nM | 264 nM |  |  |  | 
7 | COc1cc2c(NC3CCN(C)CC3)cc(-c3cccnc3)nc2cc1OCCCN1CCCC1 | 1410 nM | 40 nM | 0.22 ×10⁻⁶ cm/s | 0% | 16% | inhibition of growth at 1 µM [3]: 12%; inhibition of growth at 1 µM [7]: 17%
8 | COc1cc2c(NC3CCN(C)CC3)cc(C3CCC(C)O3)nc2cc1OCCCN1CCCC1 (stereo not drawn) | 1370 nM | 27 nM |  |  |  | 
9 | COc1cc2c(NC3CCN(C)CC3)cc(-c3ccc(-c4ccccc4)o3)nc2cc1OCCCN1CCCC1 | 1050 nM | 2720 nM |  |  |  | 
10 | COc1cc2c(NC3CCN(C)CC3)cc(C(F)(F)F)nc2cc1OCCCN1CCCC1 | > 10000 nM | 637 nM |  | 24% |  | 
11 | COc1cc2c(NC3CCN(C)CC3)cc(-c3ccc(CN(C)C)o3)nc2cc1OCCCN1CCCC1 | 1270 nM | 148 nM |  |  |  | 
12 | COc1cc2c(NC3CCN(C)CC3)cc(C3CCOCC3)nc2cc1OCCCN1CCCC1 | 4420 nM | 17 nM | 0.22 ×10⁻⁶ cm/s | 20% | 6% | inhibition of growth at 1 µM [3]: 0%; inhibition of growth at 1 µM [7]: 3%
13 | COc1cc2c(NC3CCN(C)CC3)cc(-c3ccnn3C)nc2cc1OCCCN1CCCC1 | > 10000 nM | 1080 nM | 0.09 ×10⁻⁶ cm/s |  |  | 
14 | COc1cc2c(NC3CCN(C)CC3)cc(-c3ccc(C)[nH]3)nc2cc1OCCCN1CCCC1 | 232 nM | 0.5 nM |  |  | 12% | GI50 [11]: 915 nM; LC50 [5]: 7680 nM; GI50 [8]: 1650 nM; GI50 [12]: 896 nM
15 | COc1cc2c(NC3CCN(C)CC3)nc(-c3ccc(C)o3)nc2cc1OCCCN1CCCC1 | 2250 nM | 336 nM |  |  |  | 
16 | COc1cc(NC2CCN(C)CC2)c2cc(OC)c(OCCCN3CCCC3)cc2n1 | 2290 nM | 136 nM |  | 1% |  | 
17 | CCc1ccc(-c2cc(NC3CCN(C(C)C)CC3)c3cc(OC)c(OCCCN4CCCC4)cc3n2)o1 | 284 nM | 3 nM | 3.83 ×10⁻⁶ cm/s |  |  | LC50 [5]: 1720 nM; GI50 [6]: 971 nM; GI50 [8]: 441 nM
18 | COc1cc2c(NC3CCN(C)CC3)cc(C3=CCCCC3)nc2cc1OCCCN1CCCC1 | 494 nM | 6 nM | 2.09 ×10⁻⁶ cm/s |  |  | GI50 [13]: 4290 nM; LC50 [5]: 7580 nM; GI50 [8]: 1180 nM
19 | COc1cc2c(NC3CCN(C)CC3)cc(-c3cc4ccccc4o3)nc2cc1OCCCN1CCCC1 | 1070 nM | 3140 nM |  |  |  | 
20 | COc1cc2c(NC3CCN(C)CC3)cc(-c3ccccc3)nc2cc1OCCCN1CCCC1 | 1050 nM | 15 nM | 1.69 ×10⁻⁶ cm/s |  | 7% | GI50 [11]: 420 nM; LC50 [5]: 5620 nM; GI50 [6]: 2600 nM; GI50 [8]: 658 nM; GI50 [12]: 717 nM
21 | COc1cc2c(NC3CCN(C)CC3)cc(-c3ccc(CO)o3)nc2cc1OCCCN1CCCC1 | 759 nM | 15 nM | 0.05 ×10⁻⁶ cm/s | 0% | 19% | inhibition of growth at 1 µM [3]: 26%; inhibition of growth at 1 µM [7]: 1%
22 | COc1cc2c(NC3CCN(C)CC3)cc(-c3ccccc3C)nc2cc1OCCCN1CCCC1 | 582 nM | 52 nM |  |  |  | 
23 | CCc1ccc(-c2cc(NC3CCN(C4CC4)CC3)c3cc(OC)c(OCCCN4CCCC4)cc3n2)o1 | 274 nM | 24 nM | 5.56 ×10⁻⁶ cm/s |  |  | GI50 [11]: 236 nM; LC50 [5]: 703 nM; GI50 [6]: 3510 nM; GI50 [8]: 917 nM; GI50 [12]: 1560 nM
24 | COc1cc2c(NC3CCN(C)CC3)cc(C3=CCOCC3)nc2cc1OCCCN1CCCC1 | 957 nM | 12 nM | 0.37 ×10⁻⁶ cm/s | 8% | 0% | inhibition of growth at 1 µM [3]: 6%; inhibition of growth at 1 µM [7]: 16%
25 | Nc1ncn([C@@H]2O[C@H](CO)[C@@H](O)[C@H]2O)c(=O)n1 [AZACITIDINE] | 300 nM |  |  |  |  | 
26 | Nc1ncn([C@H]2C[C@H](O)[C@@H](CO)O2)c(=O)n1 [DECITABINE] | 30 nM |  |  |  |  | 
